Experimental data as given in patent US12533408B2, “Treatment regimen for the treatment of autoimmune disorders” (Merck Patent GmbH, priority 2020, dated 2026).

Experiments:
lymphocytes = test: Absolute lymphocyte count (ALC) in vaccinated MAGNIFY-MS patients; assay type: in vivo, human
[1] = tested on: lymphocytes (ALC, CD19+ B, CD4+ T, CD8+ T); test: Post hoc analysis of ALC, lymphocyte subsets and lymphopenia by age (CLARITY, CLARITY Extension, ORACLE-MS, PREMIERE)
Experimental: Assessments included incidence and severity of Grade ≥3 lymphopenia; severity of Grade ≥3 lymphopenia was defined based on the NCI CTCAE v3.0 toxicity grading system as ALC levels <500 cells/μL. The time to recover from Grade 3 lymphopenia to Grade ≤2 (ALC ≥500 cells/μL) and to Grade ≤1 (ALC ≥800 cells/μL) were also assessed. […] All assessments were performed for each baseline age group (≤50 years and >50 years).

clinical = conditions: human, plasma, po, 10 mg
[2] = Incidence rates of infections in the clinical trial program of cladribine tablets

Nc1nc(Cl)nc2c1ncn2[C@H]1C[C@H](O)[C@@H](CO)O1 [cladribine tablets, Cladribine]
absolute lymphocyte levels (lymphocytes; Patient 70056800222010002, month 14, 1 month after vaccination): 700 cells/µL
absolute lymphocyte levels (lymphocytes; Patient 70056800227010005, Month 6): 900 cells/µL
ALC (lymphocytes; Patient Australia VZV-70056800221260001, month 2, 21.0 wk after Zostavax, 11.1 wk after first Mavenclad dose): 960 cells/μL
ALC (lymphocytes; Patient Canada VZV-70056800222530003, Scr, 1.1 wk after Shingrix, 8.6 wk before first Mavenclad dose): 2,100 cells/μL
ALC (lymphocytes; Patient Canada VZV-70056800222530003, month 2, 18.0 wk after Shingrix, 8.3 wk after first Mavenclad dose): 800 cells/μL
ALC (lymphocytes; Patient Canada VZV-70056800222530003, month 12): 1,110 cells/μL
ALC (lymphocytes; Patient Finland VZV-70056800221620004, month 2, 14.3 wk after Zostavax, 7.9 wk after first Mavenclad dose): 670 cells/μL
lymphocytes after first treatment course (lymphocytes; Shingrix case): 800 cells/µL
Median (range) time to recovery from the first Grade ≥3 lymphopenia to Grade ≤1 ([1]; Age >50): 6.06 (range: 0.2-46.5) months
Median (range) time to recovery from the first Grade ≥3 lymphopenia to Grade ≤2 ([1]; Age >50): 1.54 (range: 0.2-29.9) months
mean (SD) number of episodes of recovery from Grade ≥3 lymphopenia to Grade ≤1 per patient ([1]; Age >50): 1.3 (0.5)
Median (range) time to recovery from the first Grade ≥3 lymphopenia to Grade ≤1 ([1]; Age ≤50): 5.49 (range: 0.2-88.4) months
Median (range) time to recovery from the first Grade ≥3 lymphopenia to Grade ≤2 ([1]; Age ≤50): 1.18 (range: 0.2-22.3) months
mean (SD) number of episodes of recovery from Grade ≥3 lymphopenia to Grade ≤1 per patient ([1]; Age ≤50): 1.2 (0.5)
ALC decrease from baseline ([1]; Week 9, Age >50): 52.4%
CD8+ T lymphocytes decrease from baseline ([1]; Week 9, Age >50): 43.4%
CD19+ B lymphocytes decrease from baseline ([1]; Week 9, Age >50): 93.8%
median (range) ALC at Year 1 nadir ([1]; Week 9, Age >50): 0.9 (0.3-2.5) ×10^9 cells/L
ALC decrease from baseline ([1]; Week 9, Age ≤50): 43.5%
CD19+ B lymphocytes decrease from baseline ([1]; Week 9, Age ≤50): 90.2%
median (range) ALC at Year 1 nadir ([1]; Week 9, Age ≤50): 1.05 (0.2-6.7) ×10^9 cells/L
CD4+ T lymphocytes decrease from baseline ([1]; Week 60, Age ≤50): 66.4%
CD4+ T lymphocytes decrease from baseline ([1]; Week 72, Age >50): 73.7%
CD8+ T lymphocytes decrease from baseline ([1]; Week 72, Age ≤50): 41.8%
incidence of Grade ≥3 lymphopenia ([1]; Weeks 0-96, Age >50 (30/110)): 27.2%
incidence of Grade ≥3 lymphopenia ([1]; Weeks 0-96, Age ≤50 (205/813)): 25.2%
Grade 4 lymphopenia episodes ([1]; Year 1): No Grade 4 lymphopenia episodes
Grade ≥3 lymphopenia, patients ([1]; Year 2, Age >50): 20.0%
Grade ≥3 lymphopenia, patients ([1]; Year 2, Age ≤50): 18.7%
Grade 4 lymphopenia, patients ([1]; Year 2, aged >50 years (1 patient)): 1.0%
Grade 4 lymphopenia, patients ([1]; Year 2, aged ≤50 years (2 patients)): 0.3%
ALC decrease from baseline ([1]; Year 2 nadir, Age >50): 58.2%
ALC decrease from baseline ([1]; Year 2 nadir, Age ≤50): 55.4%
recovery of ALC and lymphocyte subsets (CD19+ B and CD4+ T) to normal levels ([1]; after last dose in treatment year 2): 30-43 weeks
Grade ≥3 lymphopenia, patients ([1]; treatment Year 1, Age >50): 10.0%
Grade ≥3 lymphopenia, patients ([1]; treatment Year 1, Age ≤50): 8.3%
bioavailability (clinical): 45.6%
influenza incidence ([2]; lymphopenia grade 0-2): 2.75 cases per 100 PY
influenza incidence ([2]; lymphopenia grade 3-4): 3.35 /100 PY
